Test results taken from publication PMC8458504, “Targeting the actin nucleation promoting factor WASp provides a therapeutic approach for hematopoietic malignancies” (Nature Communications, 2021).

Target: T1, YFP-WASp wt (Wiskott–Aldrich Syndrome protein) (Homo sapiens, UniProt P42768)
T1 construct: gene WAS; full-length wild type, YFP-tagged, transiently expressed in HEK 293T (endogenous WIP present); diluted whole-cell lysate, not purified
T1 sequence (P42768 2-502): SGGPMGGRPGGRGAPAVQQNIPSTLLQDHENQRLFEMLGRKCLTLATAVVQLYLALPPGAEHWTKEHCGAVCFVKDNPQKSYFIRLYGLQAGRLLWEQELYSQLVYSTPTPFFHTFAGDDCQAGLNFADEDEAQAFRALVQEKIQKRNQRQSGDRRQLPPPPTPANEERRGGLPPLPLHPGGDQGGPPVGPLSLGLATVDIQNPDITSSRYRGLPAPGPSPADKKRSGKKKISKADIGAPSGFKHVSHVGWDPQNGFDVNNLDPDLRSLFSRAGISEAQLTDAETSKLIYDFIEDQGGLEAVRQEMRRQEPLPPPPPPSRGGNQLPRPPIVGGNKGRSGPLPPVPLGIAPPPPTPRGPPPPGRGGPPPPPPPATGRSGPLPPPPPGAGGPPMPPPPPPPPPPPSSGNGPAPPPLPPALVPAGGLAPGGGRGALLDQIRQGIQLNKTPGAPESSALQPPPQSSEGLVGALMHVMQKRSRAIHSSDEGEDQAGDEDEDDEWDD
Assay: microscale thermophoresis in diluted HEK […] lysate
Format: binding

COc1ccc(CN2C(=O)N(CC(C)C)C3(CCN(C4Cc5ccccc5C4)CC3)C2=O)cc1 [SMC #13, 8-(2,3-dihydro-1H-inden-2-yl)-1-isobutyl-3-(4-methoxybenzyl)-1,3,8-triazaspiro[4.5]decane-2,4-dione]
Kd: 0.0308 ± 0.0136 µM
